This experiment in a line: vasodilatory and cardiovascular actions in femtomol dosages, with and without blockers of the sympathetic nervous system. It is filed as in vivo. The following applies: blocker of the sympathetic nervous system. The text has this:
In femtomol dosages, the peptide-amides according to the invention have a vasodilatory action and result in a reduction of the blood pressure and an increase in the heart rate and in the contractility of the myocardium. The actions are not affected by blockers of the sympathetic nervous system, for example metoprolol [1-isopropylamino-3-(4-{2-methoxyethyl}phenoxy)-propan-2-ol] and Trandate® (labetalol hydrochloride), whereas the action of noradrenalin and of adrenalin in serum is suppressed by those substances.

Counter-ions that a name gives are not always drawn.

2 compounds from patent US4720483A, “Oligopeptides and intermediates and processes for their manufacture” (Ciba-Geigy Corporation, priority 1985, dated 1988) can be followed below.

As to `COCCc1ccc(OCC(O)CNC(C)C)cc1` (centres unmarked) [metoprolol, 1-isopropylamino-3-(4-{2-methoxyethyl}phenoxy)-propan-2-ol], the “action of noradrenalin and of adrenalin in serum” value is reported as “suppressed”. Next, `CC(CCc1ccccc1)NCC(O)c1ccc(O)c(C(N)=O)c1` (centres unmarked) [Trandate, labetalol hydrochloride]: “suppressed”.
